Patent publication US9149543B2, “Methods and models for rapid, widespread delivery of genetic material to the CNS using non-viral, cationic lipid-mediated vectors” (The Trustees of the University of Pennsylvania, priority 2005, dated 2015)

Assay: DNA protection assay of DMDK lipoplex against DNase and human CSF (agarose gel)
Format: in vitro ADME
Settings: lipoplex incubated with DNAses or human CSF in vitro
Procedure: Naked DNA and DMDK/DNA complexes were incubated at 37° C. for thirty minutes with 1 μl of RQ1 RNase-Free DNase and 10× Reaction Buffer (Promega, Madison, Wis.). One unit of RQ1 RNase-Free DNase (1 unit/μl) is defined as the amount required to completely degrade 1 μg of lambda DNA in 10 minutes at 37° C. in 50 μl of a buffered solution. After 30 minutes of incubation, aliquots were removed and used for transfection or phenol/chloroform extraction.
Incubation and transfection were also carried out in human CSF, obtained under an approved IRB protocol at the University of Pennsylvania, wherein CSF was collected under sterile conditions at the Hospital of the University of Pennsylvania during the normal course of pre-operative spinal anesthetic administration.
An equal volume of phenol/chlororform/isoamyl alcohol was added to the DNA solution. This solution was vortexed for 10 seconds, briefly centrifuged, and the aqueous layer removed and placed in a new tube. 1/10 volume of 3M sodium acetate was added and then vortexed. Next, 2.5 volumes of ice-cold 100% EtOH was added, vortexed and placed in a −70° C. freezer for 15 minutes. The solution was then microcentrifuged for 5 minutes at maximum speed, and the supernatant was removed. 1 ml of 70% EtOH (room temperature) was added, and centrifuged for 5 minutes at maximum speed. The supernatant was removed and the pellet dried. […]

SMILES: CCCCCCCCCCCCCCC(=O)C(=O)CCCCCCCCCCCCCC [DMDK, Dimyristyl Diketone]
- protection of plasmid DNA from degradation from DNAses or from human cerebral spinal fluid: effectively protect plasmid DNA from degradation
